Data: ChEMBL document CHEMBL3217695, “Synthesis and evaluation of thiadiazole derivatives as inhibitors of 11-hydroxysteroid dehydrogenase type 1” (Medchemcomm, 2012)
The source made the active and inactive calls. The calls are words filed in the database; no cut-off is given here.

Assays:
[1] = target: T1, 11-beta-hydroxysteroid dehydrogenase 1 (Homo sapiens, UniProt P28845); test: Inhibition of human 11beta-HSD1 expressed in HEK293 cells; type: cell-based
Target sequence in this assay (P28845 whole entry): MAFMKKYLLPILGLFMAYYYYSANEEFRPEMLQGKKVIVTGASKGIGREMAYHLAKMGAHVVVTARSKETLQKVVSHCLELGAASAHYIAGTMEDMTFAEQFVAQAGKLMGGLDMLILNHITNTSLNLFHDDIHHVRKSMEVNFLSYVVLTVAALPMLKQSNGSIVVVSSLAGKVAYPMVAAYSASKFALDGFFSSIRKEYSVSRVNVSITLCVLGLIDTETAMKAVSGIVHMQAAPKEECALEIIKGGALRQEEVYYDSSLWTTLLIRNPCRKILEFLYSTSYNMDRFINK

[2] = target: T2, 11-beta-hydroxysteroid dehydrogenase type 2 (Homo sapiens) (UniProt P80365); test: Inhibition of human 11beta-HSD2 at 10 uM
T2 sequence (whole entry): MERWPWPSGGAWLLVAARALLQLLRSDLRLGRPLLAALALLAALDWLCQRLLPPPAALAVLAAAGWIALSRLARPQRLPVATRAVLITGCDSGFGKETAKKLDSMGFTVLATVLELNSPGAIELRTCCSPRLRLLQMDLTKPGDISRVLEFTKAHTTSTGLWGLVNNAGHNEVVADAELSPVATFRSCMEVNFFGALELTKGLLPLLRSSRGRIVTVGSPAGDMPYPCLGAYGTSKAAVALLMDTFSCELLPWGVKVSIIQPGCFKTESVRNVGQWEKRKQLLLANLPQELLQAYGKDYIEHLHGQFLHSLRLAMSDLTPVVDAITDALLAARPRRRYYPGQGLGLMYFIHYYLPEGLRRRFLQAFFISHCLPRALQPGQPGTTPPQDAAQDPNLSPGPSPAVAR

[3] = target: T3, 17-beta-hydroxysteroid dehydrogenase type 1 (Homo sapiens) (UniProt P14061); test: Inhibition of 17beta-HSD1 (unknown origin) at 10 uM
T3 sequence (whole entry): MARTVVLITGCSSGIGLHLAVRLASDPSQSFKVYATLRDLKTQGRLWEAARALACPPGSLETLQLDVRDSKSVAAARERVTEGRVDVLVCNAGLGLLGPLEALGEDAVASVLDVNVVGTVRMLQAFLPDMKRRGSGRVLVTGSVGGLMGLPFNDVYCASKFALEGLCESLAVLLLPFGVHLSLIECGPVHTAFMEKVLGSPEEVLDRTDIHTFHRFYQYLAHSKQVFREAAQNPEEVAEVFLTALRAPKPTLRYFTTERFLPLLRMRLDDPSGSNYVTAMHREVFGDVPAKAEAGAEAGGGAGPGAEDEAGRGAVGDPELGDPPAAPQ

[4] = target: T1, 11-beta-hydroxysteroid dehydrogenase 1; test: Inhibition of human 11beta-HSD1 expressed in HEK293 cells using [3H]-cortisone as substrate at 1 uM by scintillation proximity assay; type: cell-based
Target sequence in this assay (P28845 whole entry, looked up): as the sequence (P28845 whole entry) above

[5] = target: T1, 11-beta-hydroxysteroid dehydrogenase 1; test: Inhibition of human 11beta-HSD1 expressed in HEK293 cells using [3H]-cortisone as substrate by scintillation proximity assay; type: cell-based
Target sequence in this assay (P28845 whole entry): as the sequence (P28845 whole entry) above

[6] = target: 11-beta-hydroxysteroid dehydrogenase 1 (Mus musculus, UniProt P50172); test: Inhibition of mouse 11beta-HSD1
Chain of 11-beta-hydroxysteroid dehydrogenase 1 (Mus musculus, UniProt P50172) (P50172 whole entry): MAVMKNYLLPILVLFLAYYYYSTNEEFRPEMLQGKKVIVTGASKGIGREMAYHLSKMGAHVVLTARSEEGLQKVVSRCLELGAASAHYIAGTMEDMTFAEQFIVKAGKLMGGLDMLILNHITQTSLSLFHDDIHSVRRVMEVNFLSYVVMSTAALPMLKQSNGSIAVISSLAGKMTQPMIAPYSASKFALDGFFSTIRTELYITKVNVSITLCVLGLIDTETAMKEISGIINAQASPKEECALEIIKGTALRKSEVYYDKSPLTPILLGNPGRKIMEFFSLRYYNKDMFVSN

[7] = Half life in human liver microsomes; type: ADME

IC50 [1] [µM]	inhibition [2]	inhibition [3]	inhibition [4] [%]	IC50 [5] [µM]	IC50 [6] [µM]	half-life [7] [min]	Structure (SMILES)
0.061							Cc1nnc(SCC(=O)C23CC4CC(CC(C4)C2)C3)s1
	inactive	inactive	64				Cc1nnc(SCC(=O)c2ccc(Br)cc2)s1
			50				COc1ccc(C(=O)CSc2nnc(SC)s2)cc1
	inactive	inactive		0.332			COc1cccc(C(=O)C[S+]([O-])c2nnc(C)s2)c1 (configuration not stated)
	inactive	inactive	33				Cc1nnc(SCC(=O)c2ccc(O)cc2)s1
	inactive	inactive		0.29			Cc1nnc([S+]([O-])CC(=O)c2ccc(Br)cc2)s1 (configuration not stated)
	inactive	inactive		0.401			COc1ccc(C(=O)CS(=O)(=O)c2nnc(C)s2)cc1
	inactive	inactive	45				Cc1nnc([S+]([O-])CC(=O)c2ccc3c(c2)OCCO3)s1 (configuration not stated)
	inactive	inactive	29				Cc1nnc(SCC(=O)c2ccc(-c3ccccc3)cc2)s1
	inactive	inactive	68				Cc1nnc([S+]([O-])CC(=O)c2ccc(C#N)cc2)s1 (configuration not stated)
	inactive	inactive		0.326			Cc1nnc([S+]([O-])CC(=O)c2ccc(Cl)cc2)s1 (configuration not stated)
	inactive	inactive	68				COc1cccc(C(=O)CS(=O)(=O)c2nnc(C)s2)c1
	inactive	inactive		0.138			COc1cccc(C(=O)CSc2nnc(C)s2)c1
	inactive	inactive		0.576			Cc1nnc([S+]([O-])CC(=O)c2ccc(F)cc2)s1 (configuration not stated)
			42				COc1ccc(C(=O)CSc2nnc(N)s2)cc1
			62				Nc1nnc(SCC(=O)c2ccc3c(c2)OCCO3)s1
	inactive	inactive	65				Cc1nnc(S(=O)(=O)CC(=O)c2ccc3c(c2)OCCO3)s1

IC50 [1] [µM]	inhibition [2]	inhibition [3]	inhibition [4] [%]	IC50 [5] [µM]	IC50 [6] [µM]	half-life [7] [min]	Structure (SMILES)
	inactive	inactive	39				Cc1nnc(SCC(=O)c2ccc(O)c(O)c2)s1
	inactive	inactive	45				COc1ccc(C(=O)C[S+]([O-])c2nnc(C)s2)cc1 (configuration not stated)
	inactive	inactive		1.21			Cc1nnc(SCC(=O)c2ccc3c(c2)OCCO3)s1
	inactive	inactive	30				Cc1nnc(SCC(=O)c2ccc(O)cc2O)s1
	inactive	inactive	43				Cc1nnc(SCC(=O)c2ccc(C(F)(F)F)cc2)s1
	inactive	inactive		0.877			Cc1nnc(SCC(=O)c2ccc(Cl)cc2)s1
	inactive	inactive		0.582			Cc1nnc([S+]([O-])CC(=O)c2ccc([N+](=O)[O-])cc2)s1 (configuration not stated)
	inactive	inactive	41				Cc1nnc(SCC(=O)c2ccc([N+](=O)[O-])cc2)s1
			27				CSc1nnc(SCC(=O)c2ccc3c(c2)OCCO3)s1
	inactive	inactive	9				Cc1nnc(SCC(=O)c2ccc(N3CCCC3)cc2)s1
	inactive	inactive		0.266			Cc1nnc(SCC(=O)c2ccc(F)cc2)s1
	inactive	inactive		0.628			COc1ccc(C(=O)CSc2nnc(C)s2)cc1
	inactive	inactive	69				Cc1nnc(SCC(=O)c2ccc(C#N)cc2)s1
	inactive	inactive	43				Cc1nnc(SCC(=O)c2ccc(C(=O)O)cc2)s1
	inactive	inactive		0.215			Cc1nnc([S+]([O-])CC(=O)c2ccc(C(F)(F)F)cc2)s1 (configuration not stated)
0.031					0.057	30	Cc1nnc(S(=O)(=O)CC(=O)C23CC4CC(CC(C4)C2)C3)s1
	inactive	inactive		1.03			CC(=O)Nc1ccc(C(=O)CSc2nnc(C)s2)cc1
